Measurements from US10889609B2, “Mannitol-based amphipathic compound and use thereof” (Industry-University Cooperation Foundation Hanyang …, priority 2015, dated 2021).
Several values for one entry are separate records, joined by “and”; a condition that tells them apart may be missing. Equal entries are not always repeated.

What was measured:
[1] = Critical micellar concentration (CMC) by hydrophobic fluorescence stain diphenylhexatriene (DPH); assay type: physicochemical
Description: A method of measuring the CMC is not particularly limited, but the methods widely known in the related art may be used. For example, the CMC may be measured by a fluorescence detection method using diphenylhexatriene (DPH).
(§1) To determine characteristics of the MNAs of Preparative Example 1 to 10 synthesized according to the synthesis method of Example 1, the molecular weights (M.W.) and critical micellar concentrations (CMCs) of the MNAs and the hydrodynamic radii (Rh) of the formed micelles were measured.
(§2) Specifically, the critical micellar concentration (CMC) was measured using a hydrophobic fluorescence stain (diphenylhexatriene (DPH)), and the hydrodynamic radii (Rh) of the micelles formed by each of the preparations were measured by a dynamic light scattering (DLS) experiment. The measured results were compared to those of DDM that is a conventional amphipathic molecule (a detergent), and are listed in Table 1.

[2] = Hydrodynamic radius and size distribution of micelles by dynamic light scattering (DLS); assay type: physicochemical
Description: A method of measuring the radius of the micelle is not particularly limited, but the methods widely known in the related art may be used. For example, the radius of the micelle may be measured using a dynamic light scattering (DLS) experiment.
as §1, §2
Meanwhile, the size distributions of the micelles formed by the MNAs were measured using DLS, and the measurement results are shown in FIG. 17. The MNAs were used at a content of 1.0% by weight.

boron transporter (Bor1) = molecular target: T1, boron transporter (Bor1) (Arabidopsis thaliana, UniProt Q8VYR7); experiment: Structural stability and extraction of Bor1 by heat fluorescence size exclusion chromatography (hFSEC); conditions: for level of Bor1 protein aggregation after heat treatment: 40° C. for 10 minutes, FIG. 18
T1 construct: made in house; host or cells: Saccharomyces cerevisiae FGY217
T1 sequence (Q8VYR7 whole entry): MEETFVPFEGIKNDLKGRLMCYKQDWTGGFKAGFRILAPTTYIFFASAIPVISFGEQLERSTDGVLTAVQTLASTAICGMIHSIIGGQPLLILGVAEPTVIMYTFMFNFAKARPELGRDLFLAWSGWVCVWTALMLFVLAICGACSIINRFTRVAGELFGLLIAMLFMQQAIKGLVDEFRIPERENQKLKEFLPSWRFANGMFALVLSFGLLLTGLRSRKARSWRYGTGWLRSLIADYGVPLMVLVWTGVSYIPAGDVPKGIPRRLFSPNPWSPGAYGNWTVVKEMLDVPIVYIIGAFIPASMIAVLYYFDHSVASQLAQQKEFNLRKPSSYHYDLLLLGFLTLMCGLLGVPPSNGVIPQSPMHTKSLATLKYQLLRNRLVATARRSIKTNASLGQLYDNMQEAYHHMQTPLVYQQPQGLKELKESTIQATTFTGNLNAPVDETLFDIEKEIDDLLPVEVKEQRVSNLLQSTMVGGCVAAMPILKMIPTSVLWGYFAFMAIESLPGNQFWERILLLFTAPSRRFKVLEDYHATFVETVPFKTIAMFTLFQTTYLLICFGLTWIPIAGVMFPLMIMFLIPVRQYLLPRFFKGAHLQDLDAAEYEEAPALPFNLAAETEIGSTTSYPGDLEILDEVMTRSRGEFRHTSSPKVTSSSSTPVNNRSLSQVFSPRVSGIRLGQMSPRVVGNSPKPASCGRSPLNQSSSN
Description: An experiment for measuring the structural stability of a boron transporter (Bor1) by the MNAs was performed. The structural stability of Bor1 was measured using heat fluorescence size exclusion chromatography (hFSEC), and the concentrations of the MNAs and DDM were CMC plus 0.04% by weight. Specifically, Bor1 of Arabidopsis thaliana was expressed in Saccharomyces cerevisiae FGY217 cells as a fusion protein having a C-terminal GFP-His tag. The cells were grown in a -URA medium supplemented with 0.1% glucose. Expression of proteins was induced by adding 2% galactose, and the cells were then cultured at 20° C. for 18 hours. Here, the cell culture was carried out according to the method described in the article by D. Drew et al. (Nat. Protoc. 2008, 3, 784-798.). The cells were collected to prepare membranes, and the cell collection was carried out according to the method described in the article by J. Leung et al. (Protein Expr. Purif. 2010, 72, 139-146.). The membranes including the Bor1-GFP fusion protein were diluted with phosphate-buffered saline (PBS, pH 7.4) until the final concentration of the total proteins reached 2.8 mg/mL. In this case, 1% by weight of DDM or 1% by weight of MNA (MNA-1, MNA-2, MNA-3, MNA-4, MNA-5, MNA-6, or MNA-7) was added to the PBS. Samples were incubated for an hour while shaking at 4° C., and insoluble materials were then removed by centrifugation at 14,000 g and 4° C. for an hour. The supernatant including the dissolved protein samples was heated at 40° C. for 10 minutes, and the strongly aggregated proteins were removed by centrifugation at 14,000 g and 4° C. for 10 minutes. 200 μL of the supernatant of the samples was injected into a Superose 6 10/300 column equilibrated with 20 mM Tris (pH 7.5), 150 mM NaCl, and 0.03% DDM. Each of elution fractions was collected in 200 μL fractions at a retention volume of 6.4 mL (e.g., 6.4 mL after elusion) in a clear bottom 96-well plate. The GFP fluorescence of each of the fractions was measured at an excitation wavelength of 470 nm and an emission wavelength of 512 nm.

[3] = molecular target: T2, human β2 adrenergic receptor (β2AR) (Homo sapiens, UniProt P07550); experiment: mBBr-β2AR bimane spectra at detergent concentration below CMC; assay type: biochemical; conditions: detergent diluted to a fiftieth of its CMC, compared to DDM, FIG. 21
T2 construct: made in house
T2 sequence (P07550 whole entry): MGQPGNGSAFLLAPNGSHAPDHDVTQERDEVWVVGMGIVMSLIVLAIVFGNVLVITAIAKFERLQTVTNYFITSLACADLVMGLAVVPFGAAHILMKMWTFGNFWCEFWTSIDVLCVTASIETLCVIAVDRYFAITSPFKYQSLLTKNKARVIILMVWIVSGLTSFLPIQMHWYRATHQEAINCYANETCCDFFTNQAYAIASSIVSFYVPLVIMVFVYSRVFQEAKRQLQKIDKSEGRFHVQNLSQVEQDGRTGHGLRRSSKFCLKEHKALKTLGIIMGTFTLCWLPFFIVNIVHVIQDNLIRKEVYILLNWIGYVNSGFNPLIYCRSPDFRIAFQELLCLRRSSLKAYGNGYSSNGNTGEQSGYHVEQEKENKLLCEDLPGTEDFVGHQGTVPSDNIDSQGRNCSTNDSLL
Description: Experiments for comparing the structural changes of the β2AR protein by the MNAs and DDM at a concentration below CMCs of the amphipathic molecules were performed.
Specifically, 0.5 μL of a non-ligand mBBr-labeled receptor dissolved at 50 μNI in a 20×CMC concentration of MNA-5, MNA-6, or MNA-7 was diluted with 500 μL of an NH buffer (20 mM HEPES pH 7.5, and 100 mM NaCl). The proteins were cultured for 30 minutes, and the bimane spectra thereof were measured. The receptor dissolved in 0.1% DDM was diluted with the NH buffer, and used as the control. Data was presented as an average of three separate experiments performed in triplicate.

[4] = molecular target: T2, human β2 adrenergic receptor (β2AR); experiment: Size exclusion chromatography (SEC) of β2AR protein-detergent complexes (PDCs); conditions: Superdex-200, FIG. 23
Description: An SEC analysis was performed to determine the size of the protein-amphipathic molecule complex (i.e., a protein-detergent complex (PDC)) formed by DDM, MNA-6, or MNA-7.
Specifically, the β2AR dissolved in DDM, MNA-6 or MNA-7 was used as a test sample in the same manner as used in Example 5-3. The sample was loaded onto a Superdex-200 10/300 GL column (GE Healthcare) at 0.5 ml/min, an innate tryptophane fluorescence signal was measured at an excitation wavelength of 295 nm and an emission wavelength of 345 nm. A running buffer includes 20 mM HEPES pH 7.5, 100 mM NaCl, and 20×CMC MNA-6 or MNA-7. A difference in retention volume of the protein samples means a difference in size of the protein-detergent complexes (PDCs) formed in the presence of the amphipathic molecules.

[5] = molecular target: T2, human β2 adrenergic receptor (β2AR); experiment: Negative-stain electron microscopy (EM) of β2AR dissolved in detergent; conditions: negative staining, compared to DDM, FIG. 24
Description: A β2AR protein analysis test was performed for DDM, MNA-6, or MNA-7 using an electron microscope.
Specifically, samples were prepared using the conventional negative staining protocol disclosed in the article by M. Ohi et al. (Biol. Proced. Online 2004, 6, 23-34.). In summary, 3 μL of β2AR dissolved in DDM, MNA-6, or MNA-7 was pipetted onto a glow-discharged carbon-coated grid, and stained with 1% (w/v) uranyl formate. Thereafter, the β2AR was imaged at room temperature by running a Morgagni 268(D) transmission electron microscope (FEI Company) at 100 kV. The images were recorded at 30,416×calibrated magnification using an Orius SC200W CCD camera (Gatan Inc.).

| Compound | CMC value [1] | CMC ([1]; aqueous solution) | Rh (nm), hydrodynamic radius of micelles [2] | level of Bor1 protein aggregation after heat treatment (boron transporter (Bor1); hFSEC) | effect on stabilization of Bor1 (boron transporter (Bor1); hFSEC, aggregation level and size of target protein peak) | stability of β2AR [3] | CMC (% by weight) ([1]; aqueous solution) | Bor1 extraction efficiency (boron transporter (Bor1); 1% by weight detergent, membranes with Bor1-GFP) | size of β2AR protein-detergent complexes (PDCs) [4] | EM image background of dissolved β2AR [5] |
| --- | --- | --- | --- | --- | --- | --- | --- | --- | --- | --- |
| CCCCCCCCCCCCCO[C@H]([C@@H](OCCCCCCCCCCCCC)[C@H](CO[C@@H]1OC(CO)[C@@H](O)C(O)C1O)O[C@@H]1OC(CO)[C@@H](O)C(O)C1O)[C@H](CO[C@@H]1OC(CO)[C@@H](O)C(O)C1O)O[C@@H]1OC(CO)[C@@H](O)C(O)C1O (some centres unmarked) [MNA-6] | 2 µM | ~0.002 mM | 3.3 nm and 3.3 ± 0.04 nm | lower level of Bor1 aggregation than DDM | best effect on stabilization of the Bor1 | secured for a prolonged period of time | – | – | smaller in size compared to those formed by DDM | uniform background clutter that were relatively smaller in quantity |
| CCCCCCCCCCCCO[C@@H]1O[C@H](CO)[C@@H](O[C@H]2O[C@H](CO)[C@@H](O)[C@H](O)[C@H]2O)[C@H](O)[C@H]1O [DDM, n-dodecyl-β-D-maltopyranoside, reference compound] | 170 µM | ~0.17 mM | 3.4 nm and 3.4 ± 0.03 nm | significant level of protein aggregation | – | – | Approximately 0.0087 % by weight | 80% | – | – |
| CCCCCCCCCCO[C@H]([C@@H](OCCCCCCCCCC)[C@H](CO[C@@H]1OC(CO)[C@@H](O)C(O)C1O)O[C@@H]1OC(CO)[C@@H](O)C(O)C1O)[C@H](CO[C@@H]1OC(CO)[C@@H](O)C(O)C1O)O[C@@H]1OC(CO)[C@@H](O)C(O)C1O (some centres unmarked) [MNA-3] | – | ~0.015 mM | 2.7 nm and 2.7 ± 0.04 nm | – | – | – | – | – | – | – |
| CCCCCCCCO[C@H]([C@@H](OCCCCCCCC)[C@H](CO[C@@H]1OC(CO)[C@@H](O)C(O)C1O)O[C@@H]1OC(CO)[C@@H](O)C(O)C1O)[C@H](CO[C@@H]1OC(CO)[C@@H](O)C(O)C1O)O[C@@H]1OC(CO)[C@@H](O)C(O)C1O (some centres unmarked) [MNA-1] | – | ~0.15 mM | 2.3 nm and 2.3 ± 0.13 nm | – | – | – | – | – | – | – |
| CCCCCCCCCCCO[C@H]([C@@H](OCCCCCCCCCCC)[C@H](CO[C@@H]1OC(CO)[C@@H](O)C(O)C1O)O[C@@H]1OC(CO)[C@@H](O)C(O)C1O)[C@H](CO[C@@H]1OC(CO)[C@@H](O)C(O)C1O)O[C@@H]1OC(CO)[C@@H](O)C(O)C1O (some centres unmarked) [MNA-4] | – | ~0.006 mM | 2.9 nm and 2.9 ± 0.12 nm | level of protein aggregation similar to DDM | – | – | – | – | – | – |
| CCCCCCCCCO[C@H]([C@@H](OCCCCCCCCC)[C@H](CO[C@@H]1OC(CO)[C@@H](O)C(O)C1O)O[C@@H]1OC(CO)[C@@H](O)C(O)C1O)[C@H](CO[C@@H]1OC(CO)[C@@H](O)C(O)C1O)O[C@@H]1OC(CO)[C@@H](O)C(O)C1O (some centres unmarked) [MNA-2] | – | ~0.05 mM | 2.5 nm and 2.5 ± 0.05 nm | – | – | – | – | – | – | – |

Continued, in another order:

| CMC value [1] | CMC ([1]; aqueous solution) | Rh (nm), hydrodynamic radius of micelles [2] | level of Bor1 protein aggregation after heat treatment (boron transporter (Bor1); hFSEC) | effect on stabilization of Bor1 (boron transporter (Bor1); hFSEC, aggregation level and size of target protein peak) | stability of β2AR [3] | CMC (% by weight) ([1]; aqueous solution) | Bor1 extraction efficiency (boron transporter (Bor1); 1% by weight detergent, membranes with Bor1-GFP) | Compound | size of β2AR protein-detergent complexes (PDCs) [4] | EM image background of dissolved β2AR [5] |
| --- | --- | --- | --- | --- | --- | --- | --- | --- | --- | --- |
| 1 µM | ~0.001 mM | 4.1 nm and 4.1 ± 0.2 nm | – | – | – | – | – | CCCCCCCCCCCCCCCCCO[C@H]([C@@H](OCCCCCCCCCCCCCCCCC)[C@H](CO[C@@H]1OC(CO)[C@@H](O)C(O)C1O)O[C@@H]1OC(CO)[C@@H](O)C(O)C1O)[C@H](CO[C@@H]1OC(CO)[C@@H](O)C(O)C1O)O[C@@H]1OC(CO)[C@@H](O)C(O)C1O (some centres unmarked) [MNA-10] | – | – |
| – | ~0.003 mM | 3.5 nm and 3.5 ± 0.1 nm | – | – | – | – | – | CCCCCCCCCCCCCCCO[C@H]([C@@H](OCCCCCCCCCCCCCCC)[C@H](CO[C@@H]1OC(CO)[C@@H](O)C(O)C1O)O[C@@H]1OC(CO)[C@@H](O)C(O)C1O)[C@H](CO[C@@H]1OC(CO)[C@@H](O)C(O)C1O)O[C@@H]1OC(CO)[C@@H](O)C(O)C1O (some centres unmarked) [MNA-8] | – | – |
| 1 µM | ~0.001 mM | 3.3 nm and 3.3 ± 0.08 nm | lower level of Borl aggregation than DDM | – | secured for a prolonged period of time | – | – | CCCCCCCCCCCCCCO[C@H]([C@@H](OCCCCCCCCCCCCCC)[C@H](CO[C@@H]1OC(CO)[C@@H](O)C(O)C1O)O[C@@H]1OC(CO)[C@@H](O)C(O)C1O)[C@H](CO[C@@H]1OC(CO)[C@@H](O)C(O)C1O)O[C@@H]1OC(CO)[C@@H](O)C(O)C1O (some centres unmarked) [MNA-7] | smaller in size compared to those formed by DDM | uniform background clutter that were relatively smaller in quantity |
| 1 µM | ~0.001 mM | 3.8 nm and 3.8 ± 0.1 nm | – | – | – | – | – | CCCCCCCCCCCCCCCCO[C@H]([C@@H](OCCCCCCCCCCCCCCCC)[C@H](CO[C@@H]1OC(CO)[C@@H](O)C(O)C1O)O[C@@H]1OC(CO)[C@@H](O)C(O)C1O)[C@H](CO[C@@H]1OC(CO)[C@@H](O)C(O)C1O)O[C@@H]1OC(CO)[C@@H](O)C(O)C1O (some centres unmarked) [MNA-9] | – | – |
